{"source": "patent US4060524A", "about": "“6-Acylamido-2,2-dimethyl-3-(pyrimidin-4,6-dione-2-yl)penams” (Pfizer Inc., priority 1976, dated 1977)", "experiment_in_all_cases": "in vitro MIC, two-fold serial dilution in brain-heart infusion medium", "format_in_all_cases": "cell-based", "key": {"[1]": {"system": "Streptococcus pyogenes 02C203", "description": "(§1) The in vitro activity of the herein-described compounds renders them useful for topical application in the form of ointments, creams and the like, or for sterilization purposes, e.g., sickroom utensils. For topical application, the dosage level is on the order of from about 10 to 200 mg./kg./day.\n(§2) The in vitro (MIC) values for 6-(phenylacetamido)-2,2-dimethyl-3-(pyrimidin-4,6-dione-2-yl)penam against several organisms is presented below: […]"}, "[2]": {"system": "Pasteurella multocida 59A001", "description": "as §1, §2"}, "[3]": {"system": "Staphylococcus aureus 01A099", "description": "as §1, §2"}, "[4]": {"system": "Staphylococcus aureus 01AA005", "description": "as §1, §2"}}}
{"smiles": "CC1(C)S[C@@H]2[C@H](NC(=O)Cc3ccccc3)C(=O)N2[C@H]1C1=NC(=O)CC(=O)N1", "note": "[6-Phenylacetamido-2,2-dimethyl-3-(pyrimidin-4,6-dione-2yl)penam]", "values": [{"measurement": "MIC", "setting": "[1]", "result": 3.12, "unit": "mg/L"}, {"measurement": "MIC", "setting": "[2]", "result": 50, "unit": "mg/L"}, {"measurement": "MIC", "setting": "[3]", "result": 50, "unit": "mg/L"}, {"measurement": "MIC", "setting": "[4]", "result": 50, "unit": "mg/L"}]}
